Several values for one entry are separate records, joined by “and”; a condition that tells them apart may be missing. Equal entries are not always repeated. Entries after “also recorded” stand apart in the source; their conditions may differ.
Experiments:
[1] = Draize ocular toxicity scoring, NZW rabbit ocular toxicity model; format: in vivo; design: key to MMTS / Score (Draize total): Draize total score of cornea, iris and conjunctivae; maximum 110; III. B. Chemosis / I. A. Cornea opacity / I. B. Area of cornea involved / II. A. Iris / III. A. Conjunctivae redness / III. C. Discharge: scale not given here
Description: The ocular toxicity of several concentrations of Oligomer 2, using the Draize ocular toxicity scoring system, in the NZW rabbit ocular toxicity model was carried out.
Rabbits were treated in both eyes with (37 μl) topical drops every 30 minutes for 3 hours (7 total doses). One rabbit was treated with Tris-Buffered Saline and served as a negative control. Rabbits were evaluated in a masked fashion for ocular toxicity by an ophthalmologist with specialty training in corneal and external disease. Ocular toxicity was evaluated using the Draize scoring system after treatment on Day 0 and on Day 3 post treatment for any delayed toxicity. (Draize et al., J. Pharmacol. Exp. Ther., 1944, 82, 377-390).
A brief summary of the Draize scoring system for ocular lesions is provided below
Total Maximum Score: 110 represents the sum of all scores obtained for the cornea, iris and conjunctivae.
The ocular toxicity of several formulations of Oligomer 4 with and without farnesol, using the Draize ocular toxicity scoring system, in the NZW rabbit ocular toxicity model was carried out.
Rabbits were treated in both eyes with (37 μl) topical drops every 30 minutes for 3 hours (7 total doses). One rabbit was treated with Tris-Buffered Saline and served as a negative control. Rabbits were evaluated in a masked fashion for ocular toxicity by an ophthalmologist with specialty training in corneal and external disease 30 minutes after the final dose. Ocular toxicity was evaluated using the Draize scoring system (see above) after treatment on Day 0 and on Day 2 post treatment for any delayed toxicity.

[2] = test system: fluoroquinolone-resistant, methicillin-resistant Staphylococcus aureus (K950); assay: NZW rabbit keratitis model, corneal colony counts; format: in vivo
Procedure, shortened: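 NZW rabbit corneas, with or without intact epithelia, infected with fluoroquinolone-resistant MRSA; right eyes left untreated. Topical treatments included 1%, 0.5% or 0.25% Oligomer 2 (0.25% ± 0.005% benzalkonium chloride), 0.25% Oligomer 4 ± 200 μM Farnesol, 200 μM Farnesol alone, and 5% vancomycin; read-out corneal colony counts.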

[3] = 0.25% Oligomer 4 in TBS, Day 0, per eye
[4] = 0.25% Oligomer 4 in TBS, Day 2, per eye
[5] = 0.25% in Tris Buffered Saline (TBS), Day 0
[6] = 0.25% in Tris Buffered Saline (TBS), Day 2
[7] = 0.5% Oligomer 4 in TBS, Day 0, per eye
[8] = 0.5% Oligomer 4 in TBS, Day 2, per eye
[9] = 0.5% in Tris Buffered Saline (TBS), Day 0
[10] = 0.5% in Tris Buffered Saline (TBS), Day 2

## N=C(N)NCCCCC(=O)Nc1cc(C(F)(F)F)cc(NC(=O)c2cc(C(=O)Nc3cc(C(F)(F)F)cc(NC(=O)CCCCNC(=N)N)c3O[C@@H]3CCNC3)ncn2)c1O[C@@H]1CCNC1 [Oligomer 4]
[1]; 0.25% Oligomer 4 in TBS, Day 0
  Classification of eye irritation: Practically Non-Irritating
  MMTS: 1.5
  MMTS classification symbol: PN (0.6-2.5 Practically Non-Irritating)
[1]; [3]
  I. A. Cornea opacity: 0
  I. B. Area of cornea involved: 0
  I. Tot (cornea, A × B × 5): 0
  II. A. Iris: 0
  II. Tot (iris, A × 5): 0
  III. A. Conjunctivae redness: 0
  III. B. Chemosis: 0
[1]; 0.25% Oligomer 4 in TBS, Day 2
  Classification of eye irritation: Non-Irritating
  MMTS: 0.5
  MMTS classification symbol: N (0.0-0.5 Non-Irritating)
[1]; [4]
  I. A. Cornea opacity: 0
  I. B. Area of cornea involved: 0
  I. Tot (cornea, A × B × 5): 0
  II. A. Iris: 0
  II. Tot (iris, A × 5): 0
  III. A. Conjunctivae redness: 0
  III. B. Chemosis: 0
[1]; [5]
  MMTS: 1.5
  MMTS classification: PN (0.6-2.5 Practically Non-Irritating)
[1]; [6]
  MMTS: 0.5
  MMTS classification: N (0.0-0.5 Non-Irritating)
[1]; 0.5% Oligomer 4 in TBS, Day 0
  Classification of eye irritation: Mildly Irritating
  MMTS: 6.5
  MMTS classification symbol: M1 (2.6-15.0 Minimally Irritating)
[1]; [7]
  I. A. Cornea opacity: 0
  I. B. Area of cornea involved: 0
  I. Tot (cornea, A × B × 5): 0
  II. A. Iris: 0
  II. Tot (iris, A × 5): 0
  III. C. Discharge: 2 and 1
[1]; 0.5% Oligomer 4 in TBS, Day 2
  MMTS: 1.0
  MMTS classification symbol: N (0.0-0.5 Non-Irritating)
[1]; [8]
  I. A. Cornea opacity: 0
  I. B. Area of cornea involved: 0
  I. Tot (cornea, A × B × 5): 0
  II. A. Iris: 0
  II. Tot (iris, A × 5): 0
  III. A. Conjunctivae redness: 0
  III. B. Chemosis: 0
[1]; [9]
  MMTS: 6.5
  MMTS classification: M1 (2.6-15.0 Minimally Irritating)
[1]; [10]
  MMTS: 1.0
  MMTS classification: N (0.0-0.5 Non-Irritating)
[1]; Example 7, 7 topical instillations, every 30 minutes for 3 hours
  Dose dependence of ocular toxicity: dose dependent ocular toxicity
[1]; rabbit, in vivo
  Effect of addition of 100 μM Farnesol in 1% Propylene Glycol on ocular toxicity: increased the toxicity
[2]; Ker-4
  Effect of addition of Farnesol on penetration and antibacterial efficacy of Oligomer 4: did nothing to promote penetration; also recorded: a trend toward antagonism
[2]; Ker-4, corneal epithelium removed
  Reduction of colony counts compared with the Onset of Therapy Control: effective
[2]; in vivo
  Effect of addition of Farnesol on penetration of 0.25% Oligomer 4 through the intact corneal epithelium: did not appear aid in the penetration

— patent US20130065818A1, “Arylamide Compounds And Compositions And Uses Thereof” (POLYMEDIX, priority 2006, published 2013)
